In patent publication US5264430A, “2-spirocyclopropyl cephalosporin sulfone derivatives” (SynPhar Laboratories, Inc., priority 1991, dated 1993):

What was measured:
cathepsin G = target: T1, cathepsin G (Homo sapiens, UniProt P08311); test: Selectivity against various proteases: cathepsin G (CTG); type: biochemical; conditions: cathepsin G 50 nM, human white blood cells, pH 7.5, 30° C., 10 minute preincubation
T1 construct: Purified Cathepsin G from human white blood cells; from tissue; host or cells: human white blood cells
T1 sequence (P08311 21-244 limits assumed): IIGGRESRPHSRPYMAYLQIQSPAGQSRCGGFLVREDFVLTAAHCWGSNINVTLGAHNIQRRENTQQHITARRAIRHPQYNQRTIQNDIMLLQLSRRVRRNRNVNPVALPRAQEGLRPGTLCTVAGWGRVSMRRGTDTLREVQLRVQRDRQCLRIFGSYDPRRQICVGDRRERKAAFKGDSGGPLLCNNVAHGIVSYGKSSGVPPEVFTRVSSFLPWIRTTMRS
Procedure: Reaction mixture: […] 500 mM NaCl […] 2.0 mM Substrate Except for Cathepsin D, the enzyme activities were determined by monitoring the increase in absorbance at 410 nm caused by the hydrolysis of chromogenic substrates. The activity of Cathepsin D was determined by monitoring the absorbance of 5% trichloroacetic acid-soluble material at 280 nm. Inhibition of enzymes by the compounds described were determined after a 10 minute preincubation with enzymes in reaction mixtures minus substrate. Reactions were initiated by the addition of substrates. The concentration used for assays were porcine pancreatic elastase at 240 nM and human Cathepsin G at 50 nM. Cathepsin D was used at the concentration that produced approximately 0.15 O.D. increase per 20 min at 280 nm under the standard conditions. All other proteases were assayed at the concentrations that produced approximately 0.1 O.D. change per minute at 410 nm under the standard conditions.

[1] = target: T2, human leukocyte elastase (HLE) (Homo sapiens, UniProt P08246); test: Enzyme assay for inhibition of HLE (Table I, activity against ILE); type: biochemical; conditions: HLE 10 nM, 10 minute preincubation, pH 7.6, 30° C.
T2 construct: Purified elastase from human white blood cells; from tissue; host or cells: human white blood cells
T2 sequence (P08246 30-247 limits assumed): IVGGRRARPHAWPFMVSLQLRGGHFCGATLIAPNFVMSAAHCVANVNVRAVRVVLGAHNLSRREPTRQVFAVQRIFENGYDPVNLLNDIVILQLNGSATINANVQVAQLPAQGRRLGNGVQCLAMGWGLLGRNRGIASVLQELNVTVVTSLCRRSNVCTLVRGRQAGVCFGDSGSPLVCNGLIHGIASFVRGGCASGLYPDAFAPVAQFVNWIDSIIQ
Procedure: Enzyme Assay for Inhibition of HLE
Enzyme: Purified elastase from human white blood cells.
MeO-succinyl-L-alanyl-L-alanyl-L-propyl-L-valine-p-nitroanilide (NA)
10 mM phosphate buffer (pH 7.6)
10% dimethylsulfoxide (DMSO)
The enzyme activity was determined by monitoring the increase in absorbance at […] caused by the hydrolysis of chromogenic substrates. Inhibition of enzyme by the compounds described were determined after a 10 minute preincubation with the enzyme in reaction mixture minus substrate. Reaction was initiated by the addition of substrate. The concentration of human leukocyte elastase used for assay was at 10 nM.
HLE, CTG, PPE, and CTD were tested at 30° C. and the others were […]

IC50 (cathepsin G): 16.2 µM
IC50 [1]: 0.00336 µM
Compound: CC1=C(C(=O)OC(c2ccccc2)c2ccccc2)N2C(=O)[C@H](Br)[C@H]2S(=O)(=O)C12CC2(c1ccccc1)c1ccccc1 (single isomer, unassigned) [Example 2, benzhydryl 7α-bromo-2-spiro(2', 2'-diphenyl) cyclopropyl-3-methyl-3-cephem-4-carboxylate-1,1-dioxide]
